Experimental data taken from patent US20170037028A1 (BAYER PHARMA AKTIENGESELLSCHAFT, priority 2013, published 2017).
Like-named read-outs stand apart in the source and are kept apart here.

Target: T1, GLUT1 (Homo sapiens, UniProt P11166)
T1 sequence (P11166 1-492): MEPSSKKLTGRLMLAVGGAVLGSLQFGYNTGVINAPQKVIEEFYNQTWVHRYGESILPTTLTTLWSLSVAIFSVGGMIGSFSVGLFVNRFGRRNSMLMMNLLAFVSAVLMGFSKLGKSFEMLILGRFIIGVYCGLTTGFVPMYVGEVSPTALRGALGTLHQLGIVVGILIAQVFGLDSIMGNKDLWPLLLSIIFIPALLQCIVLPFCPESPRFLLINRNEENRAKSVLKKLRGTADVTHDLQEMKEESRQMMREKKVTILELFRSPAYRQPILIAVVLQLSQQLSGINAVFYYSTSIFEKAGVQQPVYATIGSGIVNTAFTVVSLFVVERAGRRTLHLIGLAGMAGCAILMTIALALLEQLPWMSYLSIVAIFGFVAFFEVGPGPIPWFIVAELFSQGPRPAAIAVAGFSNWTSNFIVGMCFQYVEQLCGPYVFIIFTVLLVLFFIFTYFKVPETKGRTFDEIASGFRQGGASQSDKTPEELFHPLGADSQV
Test: Indirect measurement of GLUT1 activity by quantification of intracellular ATP levels (glucose induced ATP increase)
Format: cell-based
Parameters: endogenous in cells; host or cells: DLD1 or CHO-K1
Conditions: read-out: IC50 regarding glucose induced ATP increase (GLUT1 inhibition)
Procedure, shortened: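 DLD1 or CHO-K1 cells were starved overnight in glucose-free medium with 1% FCS, then combined with an oxidative phosphorylation inhibitor. GLUT1 activity was read as glucose-induced ATP increase, GLUT2 as fructose-induced. Intracellular ATP was quantified by CellTiter-Glo luminescence.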

| Compound | IC50 [nM] | IC50 (DLD1 cells, 0.1 mM glucose, 1 μM Rotenone, 15 min, CellTiter-Glo ATP readout, IC50 values standardized to cytochalasin B IC50 values) [nM] |
| --- | --- | --- |
| CCS(=O)(=O)N1CCC(Cn2nc(C(F)(F)F)c(NC(=O)c3cc(C(N)=O)nc4cc(F)c(Cl)cc34)c2C)CC1 [Example 413, 6-chloro-N^4-[1-{[1-(ethylsulfonyl)piperidin-4-yl]methyl}-5-methyl-3-(trifluoromethyl)-1H-pyrazol-4-yl]-7-fluoroquinoline-2,4-dicarboxamide] | 5.6 | – |
| Cc1nn(Cc2cc(C3CC3)on2)c(C)c1NC(=O)c1cc(C(N)=O)nc2cc(F)ccc12 [Example 418, N^4-{1-[(5-cyclopropyl-1,2-oxazol-3-yl)methyl]-3,5-dimethyl-1H-pyrazol-4-yl}-7-fluoroquinoline-2,4-dicarboxamide] | 4.1 | – |
| Cc1nn(Cc2cc(C3CC3)on2)c(C)c1NC(=O)c1cc(C(N)=O)nc2ccccc12 [Example 419, N^4-{1-[(5-cyclopropyl-1,2-oxazol-3-yl)methyl]-3,5-dimethyl-1H-pyrazol-4-yl}quinoline-2,4-dicarboxamide] | 4.2 | – |
| Cc1cc(Cn2nc(C(F)(F)F)c(NC(=O)c3cc(C(N)=O)nc4cc(F)c(Cl)cc34)c2C)on1 [Example 420, 6-chloro-7-fluoro-N^4-{5-methyl-1-[(3-methyl-1,2-oxazol-5-yl)methyl]-3-(trifluoromethyl)-1H-pyrazol-4-yl}quinoline-2,4-dicarboxamide] | 4.9 | – |
| Cc1nn(Cc2ccc(C#N)s2)c(C)c1NC(=O)c1cc(C(N)=O)nc2cc(F)ccc12 [Example 422] | 5 | – |
| Cc1c(NC(=O)c2cc(C(N)=O)nc3cc(F)ccc23)c(C(F)(F)F)nn1Cc1ncc(C#N)cn1 [Example 423, N^4-{1-[(5-cyanopyrimidin-2-yl)methyl]-5-methyl-3-(trifluoromethyl)-1H-pyrazol-4-yl}-7-fluoroquinoline-2,4-dicarboxamide] | 6.7 | – |
| Cc1c(NC(=O)c2cc(C(N)=O)nc3cccc(F)c23)c(C(F)(F)F)nn1Cc1ncc(C#N)cn1 [Example 424, N^4-{1-[(5-cyanopyrimidin-2-yl)methyl]-5-methyl-3-(trifluoromethyl)-1H-pyrazol-4-yl}-5-fluoroquinoline-2,4-dicarboxamide] | 6.7 | – |
| Cc1c(NC(=O)c2cc(C(N)=O)nc3ccc(O)cc23)c(C(F)(F)F)nn1Cc1ccc(C#N)cc1 [Example 425, N^4-[1-(4-cyanobenzyl)-5-methyl-3-(trifluoromethyl)-1H-pyrazol-4-yl]-6-hydroxyquinoline-2,4-dicarboxamide] | 4.9 | – |
| Cc1c(NC(=O)c2cc(C(=O)NS(C)(=O)=O)nc3ccccc23)c(C(F)(F)F)nn1Cc1ccc(C#N)cc1 [Example 426, N^4-[1-(4-cyanobenzyl)-5-methyl-3-(trifluoromethyl)-1H-pyrazol-4-yl]-N^2-(methylsulfonyl)quinoline-2,4-dicarboxamide] | 2530 | – |
| Cc1c(NC(=O)c2cc(C(N)=O)nc3cc(F)ccc23)c(C(F)(F)F)nn1Cc1ccc(C#N)nn1 [Example 427, N^4-{1-[(6-cyanopyridazin-3-yl)methyl]-5-methyl-3-(trifluoromethyl)-1H-pyrazol-4-yl}-7-fluoroquinoline-2,4-dicarboxamide] | – | 78.3 |
| COc1ccc(Cn2nc(C(F)(F)F)c(NC(=O)c3cc(C(F)(F)F)nc4ccc(Br)cc34)c2C)cn1 [Example 1027] | 3 | – |
| CCNC(=O)c1ccc(Cn2nc(C)c(NC(=O)c3cc(C(F)(F)F)nc4ccc(Br)cc34)c2C)cc1 [Example 1028] | 3 | – |
| Cc1nn(Cc2ccc(C(=O)NCCF)cc2)c(C)c1NC(=O)c1cc(C(F)(F)F)nc2ccc(Br)cc12 [Example 1030] | 3.2 | – |
| Cc1nn(Cc2ccc(C(=O)N3CCCC3)cc2)c(C)c1NC(=O)c1cc(C(F)(F)F)nc2ccc(Br)cc12 [Example 1033] | 4.2 | – |
| COc1ccc(Cn2nc(C(F)(F)F)c(NC(=O)c3cc(C(F)(F)F)nc4ccc(Br)cc34)c2C)cc1 [Example 1035] | 5 | – |
| CNC(=O)c1c(NC(=O)c2cc(C(F)(F)F)nc3ccc(Br)cc23)c(C)nn1Cc1ccc(F)cc1 [Example 1036] | 5.1 | – |
| Cc1nn(Cc2ccc(C(=O)N3CCC3)cc2)c(C)c1NC(=O)c1cc(C(F)(F)F)nc2ccc(Br)cc12 [Example 1037] | 5.3 | – |
| Cc1nn(Cc2ccc(C(=O)Nc3ccccc3C(N)=O)cc2)c(C)c1NC(=O)c1cc(C(F)(F)F)nc2ccc(Br)cc12 [Example 1038] | 5.7 | – |
| COc1ccc(Cn2nc(C)c(NC(=O)c3cc(C(F)(F)F)nc4ccc(Br)cc34)c2C)cc1F [Example 1039] | 5.7 | – |
| Cc1nn(Cc2ccc(C(=O)Nc3ccccc3Cl)cc2)c(C)c1NC(=O)c1cc(C(F)(F)F)nc2ccc(Br)cc12 [Example 1040] | 6.7 | – |
| Cc1nn(Cc2ccc(C(=O)Nc3ccccc3)cn2)c(C)c1NC(=O)c1cc(C(F)(F)F)nc2ccc(Br)cc12 [Example 1041] | 8.6 | – |
| CNC(=O)N(C)CCNC(=O)c1ccc(Cn2nc(C)c(NC(=O)c3cc(C(F)(F)F)nc4ccc(Br)cc34)c2C)cc1 [Example 1043] | 8.8 | – |
| Cc1nn(Cc2ccc(C(=O)NCCCC(=O)N(C)C)cc2)c(C)c1NC(=O)c1cc(C(F)(F)F)nc2ccc(Br)cc12 [Example 1044] | 8.8 | – |

More lines, main results first:

| IC50 [nM] | Compound | IC50 (DLD1 cells, 0.1 mM glucose, 1 μM Rotenone, 15 min, CellTiter-Glo ATP readout, IC50 values standardized to cytochalasin B IC50 values) [nM] |
| --- | --- | --- |
| 1.3 | CCc1cc(Cn2nc(C)c(NC(=O)c3cc(C(N)=O)nc4cc(F)c(Cl)cc34)c2C)on1 [Example 414, 6-chloro-N^4-{1-[(3-ethyl-1,2-oxazol-5-yl)methyl]-3,5-dimethyl-1H-pyrazol-4-yl}-7-fluoroquinoline-2,4-dicarboxamide] | – |
| 2.7 | Cc1nn(Cc2cc(C(C)C)no2)c(C)c1NC(=O)c1cc(C(N)=O)nc2cc(F)c(Cl)cc12 [Example 416, 6-chloro-N^4-(3,5-dimethyl-1-{[3-(propan-2-yl)-1,2-oxazol-5-yl]methyl}-1H-pyrazol-4-yl)-7-fluoroquinoline-2,4-dicarboxamide] | – |
| 0.7 | Cc1nn(Cc2cc(C3CC3)on2)c(C)c1NC(=O)c1cc(C(N)=O)nc2cc(F)c(Cl)cc12 [Example 417, 6-chloro-N^4-{1-[(5-cyclopropyl-1,2-oxazol-3-yl)methyl]-3,5-dimethyl-1H-pyrazol-4-yl}-7-fluoroquinoline-2,4-dicarboxamide] | – |
| 2.9 | Cc1c(NC(=O)c2cc(C(N)=O)nc3cc(F)c(Cl)cc23)c(C(F)(F)F)nn1Cc1ccc(C#N)s1 [Example 421, 6-chloro-N^4-{1-[(5-cyano-2-thienyl)methyl]-5-methyl-3-(trifluoromethyl)-1H-pyrazol-4-yl}-7-fluoroquinoline-2,4-dicarboxamide] | – |
| 1.9 | C=CCNC(=O)c1ccc(Cn2nc(C)c(NC(=O)c3cc(C(F)(F)F)nc4ccc(Br)cc34)c2C)cc1 [Example 1018] | – |
| 1.9 | Cc1nn(Cc2ccc(C(=O)NC[C@@H](C)O)cc2)c(C)c1NC(=O)c1cc(C(F)(F)F)nc2ccc(Br)cc12 [Example 1019] | – |
| 1.9 | CCCNC(=O)c1ccc(Cn2nc(C)c(NC(=O)c3cc(C(F)(F)F)nc4ccc(Br)cc34)c2C)cc1 [Example 1020] | – |
| 2.3 | Cc1nn(Cc2ccc(C(=O)NCc3ccncc3)cc2)c(C)c1NC(=O)c1cc(C(F)(F)F)nc2ccc(Br)cc12 [Example 1021] | – |
| 2.4 | Cc1nn(Cc2ccc(C(=O)NCC#N)cc2)c(C)c1NC(=O)c1cc(C(F)(F)F)nc2ccc(Br)cc12 [Example 1022] | – |
| 2.7 | Cc1nn(Cc2ccc(C(=O)NC3CC3)cc2)c(C)c1NC(=O)c1cc(C(F)(F)F)nc2ccc(Br)cc12 [Example 1024] | – |
| 2.8 | COc1ccc(Cn2nc(C)c(NC(=O)c3cc(C(F)(F)F)nc4ccc(Br)cc34)c2C)cn1 [Example 1025] | – |
